# Measurements published in patent US6859735B1, “Computer systems for identifying pathways of drug action” (priority 1998, dated 2005).
# Experiments:
# wild type yeast cells = settings: at 10 micrograms/ml doxycycline, Gari et al. 1997; cited from earlier work
# [1] = tested on: pathway originating at calcineurin; assay: Genome-wide correlation of FK506 expression responses against combined Cyc A and methotrexate pathway responses (scaling parameter); type: cell-based, Saccharomyces cerevisiae; settings: location of the correlation peak versus scaling parameter applied to FK506 data
# Experimental: The gene expression measurements illustrated in FIGS. 8A-C were made as detailed below. To generate the cyclosporin dose response curves, an overnight starter culture of S.cerevisiae strain R563 (Genotype: Mat a ura3-52 lys2-801 ade2-101 trpl-Δ63 his3-Δ200 leu2-Δ1 his3::HIS3) was diluted into 200 ml of YAPD plus 10 mM CaCl2 medium (see, e.g., Ausubel et al., eds., 1996, Current Protocols in Molecular Biology, John Wiley & Sons, Inc., especially ch. 13) to an OD600 of 0.1 and grown at 30° C. with 300 rpm shaking. After a 30 min, cyclosporin A dissolved in ethanol was added to cultures at final concentrations of 60, 30, 15, 6 and 3 μg/ml. Control cultures were treated with the same volume of just ethanol. Growth was monitored by OD600 and cells were harvested at OD600=1.4+/−0.1 by centrifugation for 2 min at ambient temperature in a Sorvall RC5C+centrifuge in a SLA-1500 rotor. […]
# In all cases, polyA^+ RNA was isolated by oligo-dT cellulose chromatography using two selections by standard protocols (see, e.g., Sambrook et al. 1989, Molecular Cloning A Laboratory Manual, Cold Spring Harbor Laboratory Press). […] Extent of hybridization was determined by scanning with a prototype multi-frame CCD camera slides produced by Applied Precision, Inc. Images were processed by informatics and imported into the Inpharma database and analyzed using the MatLab data analysis package. […]
# yeast = assay: Growth of yeast under methotrexate exposure; type: cell-based, Saccharomyces cerevisiae; settings: 100 μm methotrexate titration
# Experimental: To generate methotrexate dose response curves, an overnight starter culture of S.cerevisiae strain BY4741 (Genotype: Mat a his3Δ0 leu2D0 ura3Δ0 met15Δ0) was diluted into 200 ml of SC medium (see, e.g., Ausubel et al, ch. 13) to an OD600 of 0.1 and grown at 30° C. with 300 rpm shaking. After 30 min, methotrexate dissolved in water was added to cultures at final concentrations of 200, 100, 50, 25, 6.2, and 3.1 μM. Control cultures were treated with the same volume of water. The rest of the procedure was as above.
# yeast gene YOL031C = assay: Transcript array gene expression response to graded methotrexate exposure, Hill function fit; type: cell-based, Saccharomyces cerevisiae
# Text: In model fitting, the drug and pathway responses are interpolated by approximating each by a single parameterized function. An exemplary model-fitting function appropriate for approximating transcriptional state data is the Hill function, which has adjustable parameters a, u0, and n. [formula]
# The adjustable parameters are selected independently for each cellular constituent of the drug response and for each cellular constituent of the pathway response. Preferably, the adjustable parameters are selected so that for each cellular constituent of each pathway response the sum of the squares of the distances of H(pi,l) from Ri,k(pi,l) is minimized, and so that for each cellular constituent of the drug response the sum of the squares of the distances of H(tl) from Dk(tl) is minimized. This preferable parameter adjustment method is known in the art as a least squares fit of H( ) to Ri,k( ) or to Dk( ). Other possible model functions are based on polynomial fitting, for example by various known classes of polynomials.
# Model fitting with a Hill function is illustrated with respect to FIGS. 3 and 4. As discussed, FIG. 3 illustrates an example of a pathway perturbed by methotrexate and identified by measurement. This figure illustrates the mRNA expression levels of 30 genes of the yeast S. cerevisiae that, of the approximately 6000 genes in the genome of this yeast, had the largest expression changes in response to six different exposure levels of methotrexate. FIG. 4 illustrates a fit of the pathway response of one of these gene expression levels by a Hill function. […]
# In all cases, polyA^+ RNA was isolated by oligo-dT cellulose chromatography using two selections by standard protocols (see, e.g., Sambrook et al. 1989, Molecular Cloning A Laboratory Manual, Cold Spring Harbor Laboratory Press). […] Extent of hybridization was determined by scanning with a prototype multi-frame CCD camera slides produced by Applied Precision, Inc. Images were processed by informatics and imported into the Inpharma database and analyzed using the MatLab data analysis package.
structure (smiles),measurement,setting,value
C[C@H]1c2cccc(O)c2C(=O)C2=C(O)[C@]3(O)C(=O)C(C(N)=O)=C(O)[C@@H](N(C)C)[C@@H]3[C@@H](O)[C@@H]21 [doxycycline],effect on the growth rate,wild type yeast cells,no significant effect
C=CC[C@@H]1/C=C(\C)C[C@H](C)C[C@H](OC)[C@H]2O[C@@](O)(C(=O)C(=O)N3CCCC[C@H]3C(=O)O[C@H](/C(C)=C/[C@@H]3CC[C@@H](O)[C@H](OC)C3)[C@H](C)[C@@H](O)CC1=O)[C@H](C)C[C@@H]2OC [FK506],approximate relative potency of FK506 and Cyc A,[1],approximately 63
CN(Cc1cnc2nc(N)nc(N)c2n1)c1ccc(C(=O)N[C@@H](CCC(=O)O)C(=O)O)cc1 [methotrexate],growth defect,yeast,50%
same,Hill function parameter a,yeast gene YOL031C; least squares fit of YOL031C expression response (log expression ratio amplitude),−0.61
same,Hill function parameter n,yeast gene YOL031C; least squares fit of YOL031C expression response to six methotrexate exposure levels,2
same,Hill function parameter log10(u0),"yeast gene YOL031C; least squares fit of YOL031C expression response, methotrexate exposure levels 3-200 μm",1.26
